Assay results as given in patent publication US6875760B2 (Novo Nordisk A/S, priority 1999, dated 2005).

Biological target: T1, human glucagon receptor (Homo sapiens, UniProt P47871)
T1 construct: expressed in transfected cells; host or cells: BHK (baby hamster kidney) cells
Assay: Glucagon Binding Assay (III)
Conditions: BHK cell membranes, WGA SPA beads, 125I-glucagon; read-out: Glu Bd Assay (III) IC50
Protocol: BHK (baby hamster kidney cell line) cells were transfected with the human glucagon receptor and a membrane preparation of the cells was prepared.
All steps in the membrane preparation were kept on ice or performed at 4° C. BHK cells were harvested and centrifuged. […] The pellet was resuspended in homogenisation buffer, homogenised 2×10 sec (Polytron) and additional homogenisation buffer was added. […] (Polytron).
The glucagon binding assay was carried out in opti plates (Polystyrene Microplates, Packard). […] Finally 50 μL WGA beads containing 1 mg beads were transferred to the well. The assay was incubated for 4 hours on a shaker and then settled for 8-48 hours. The opti plates were counted in a Topcounter. Non-specific binding was determined with 500 nM of glucagon.

T1 sequence (P47871 26-477): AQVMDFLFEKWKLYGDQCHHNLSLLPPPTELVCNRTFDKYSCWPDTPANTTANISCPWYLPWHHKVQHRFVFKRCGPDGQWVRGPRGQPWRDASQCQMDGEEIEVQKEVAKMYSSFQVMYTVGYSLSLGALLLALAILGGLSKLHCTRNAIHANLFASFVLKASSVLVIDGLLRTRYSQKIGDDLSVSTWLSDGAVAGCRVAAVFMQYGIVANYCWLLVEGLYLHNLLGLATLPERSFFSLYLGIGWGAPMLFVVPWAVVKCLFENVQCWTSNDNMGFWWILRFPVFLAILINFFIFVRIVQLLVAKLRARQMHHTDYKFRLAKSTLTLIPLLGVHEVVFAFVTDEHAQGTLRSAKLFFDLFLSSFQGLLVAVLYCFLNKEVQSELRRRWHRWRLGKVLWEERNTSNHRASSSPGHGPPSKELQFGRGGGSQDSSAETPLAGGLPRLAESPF

**Q.** With `O=C(Nc1nn[nH]n1)c1ccc(CN(C(=O)Nc2ccc3c(c2)C(=O)N(CC2CC2)C3=O)c2ccc(C3=CCCCC3)cc2)cc1` [Example 644, 4-[3-(N′-[Cyclopropylmethyl]phthalimid-4-yl)-1-(4-cyclohex-1-enylphenyl)ureidomethyl]-N-(2H-tetrazol-5-yl)benzamide] as the compound, how does the IC50 read?
**A.** Its IC50 is 4 nM.

**Q.** With `CCCCC(CC)CN(Cc1ccc(C(=O)NCCC(=O)O)cc1)C(=O)Nc1cccc(C#N)c1` (centres unmarked) [Example 20, 3-{4-[3-(3-Cyanophenyl)-1-(2-ethylhexyl)ureidomethyl]benzoylamino}propionic acid] as the compound, how does the IC50 read?
**A.** The IC50 was 2370 nM.

**Q.** Which IC50 does the source give for `CSc1ccc(NC(=O)N(Cc2ccc(C(=O)Nc3nn[nH]n3)cc2)c2ccc(C3CCCCC3)cc2)cc1` [Example 298, 4-[1-(4-Cyclohexylphenyl)-3-(4-methylsulfanylphenyl)ureidomethyl]-N-(2H-tetrazol-5-yl)benzamide] here?
**A.** Its IC50 is 38 nM.

**Q.** How did the IC50 turn out when `CS(=O)(=O)c1ccc(NC(=O)N(Cc2ccc(C(=O)Nc3nn[nH]n3)cc2)c2ccc(C3CCCCC3)cc2)s1` [Example 320, 4-[1-(4-Cyclohexylphenyl)-3-(5-methylsulfonylthiophen-2-yl)ureidomethyl]-N-(2H-tetrazol-5-yl)benzamide] was run?
**A.** Its IC50 is 28 nM.

**Q.** `CC(NC(=O)N(Cc1ccc(C(=O)Nc2nn[nH]n2)cc1)c1ccc(C2CCCCC2)cc1)c1ccc(Cl)cc1` (centres unmarked) [Example 336, 4-[3-[1-(4-Chlorophenyl)ethyl]-1-(4-cyclohexylphenyl)ureidomethyl]-N-(2H-tetrazol-5-yl)benzamide] was tested. Which IC50 did it give?
**A.** Its IC50 is 58 nM.

**Q.** For `CCCCOc1ccc(NC(=O)N(Cc2ccc(C(=O)Nc3nn[nH]n3)cc2)c2ccc(C(C)(C)C)cc2)cc1S(C)(=O)=O` [Example 367, 4-[3-(4-Butoxy-3-methylsulfonylphenyl)-1-(4-tert-butylphenyl)ureidomethyl]-N-(2H-tetrazol-5-yl)benzamide], which IC50 is on record?
**A.** The IC50 was 34 nM.

**Q.** How did the IC50 turn out when `CC(C)(C)C1CCC(N(Cc2ccc(C(=O)NCCC(=O)O)cc2)C(=O)Nc2ccc(C(F)(F)F)cc2)CC1` (centres unmarked) [Example 63, 3-{4-[1-(4-tert-Butylcyclohexyl)-3-(4-trifluoromethylphenyl)ureidomethyl]benzoylamino}propionic acid] was run?
**A.** The IC50 was 645 nM.

**Q.** With `CC(C)Cc1ccc(C(=O)N(Cc2ccc(C(=O)NCCC(=O)O)cc2)c2ccc(C3CCCCC3)cc2)cc1` [Example 520, 3-(4-{[(4-Cyclohexylphenyl)-(4-isobutylbenzoyl)amino]methyl}benzoylamino)propionic acid] as the compound, how does the IC50 read?
**A.** The IC50 was 1980 nM.

**Q.** With `CN(C)C(=O)c1cccc(NC(=O)N(Cc2ccc(C(=O)Nc3nn[nH]n3)cc2)c2ccc(C3CCCCC3)cc2)c1` [Example 463, N,N-Dimethyl-3-{3-(4-cyclohexylphenyl)-3-[4-(2H-tetrazol-5-ylcarbamoyl)benzyl]ureido}benzamide] as the compound, how does the IC50 read?
**A.** The IC50 was 256 nM.

**Q.** Which IC50 does the source give for `CC(C)Cc1ccc(NC(=O)N(Cc2ccc(C(=O)NCCC(=O)O)cc2)C2CCC(C(C)(C)C)CC2)cc1` (centres unmarked) [Example 62, 3-{4-[1-(4-tert-Butylcyclohexyl)-3-(4-isobutylphenyl)ureidomethyl]benzoylamino}propionic acid] here?
**A.** The IC50 was 39 nM.

**Q.** With `CN(C)C(=O)c1cccc(NC(=O)N(Cc2ccc(C(=O)Nc3nn[nH]n3)cc2)c2ccc(C(C)(C)C)cc2)c1` [Example 461, N,N-Dimethyl-3-{3-(4-tert-butylphenyl)-3-[4-(2H-tetrazol-5-ylcarbamoyl)benzyl]ureido}benzamide] as the compound, how does the IC50 read?
**A.** The IC50 was 764 nM.

**Q.** Which IC50 does the source give for `O=C(Nc1nn[nH]n1)c1ccc(CN(C(=O)Nc2cccc(OC(F)(F)F)c2)c2ccc(C3CCCCC3)cc2)cc1` [Example 344, 4-[1-(4-Cyclohexylphenyl)-3-(3-trifluoromethoxyphenyl)ureidomethyl]-N-(2H-tetrazol-5-yl)benzamide] here?
**A.** Its IC50 is 16 nM.

**Q.** How did the IC50 turn out when `O=C(Nc1nn[nH]n1)c1ccc(CN(C(=O)c2cccc(Cl)c2)c2ccc(C3=CCCCC3)cc2)cc1` [Example 495, 4-({(4-Cyclohex-1-enylphenyl)-(3-chlorobenzoyl)amino}methyl)-N-(2H-tetrazol-5-yl)benzamide] was run?
**A.** Its IC50 is 306 nM.

**Q.** With `CN(C)S(=O)(=O)c1cccc(NC(=O)N(Cc2ccc(C(=O)Nc3nn[nH]n3)cc2)c2ccc(C(C)(C)C)cc2)c1` [Example 276, 4-[1-(4-tert-Butylphenyl)-3-(3-dimethylsulfamoylphenyl)ureidomethyl]-N-(2H-tetrazol-5-yl)benzamide] as the compound, how does the IC50 read?
**A.** Its IC50 is 313 nM.

**Q.** How did the IC50 turn out when `CC(C)(C)C1CCC(N(Cc2ccc(C(=O)NCCC(=O)O)cc2)C(=O)Oc2cc(Cl)cc(Cl)c2)CC1` (centres unmarked) [Example 402, 3-(4-{[(4-tert-Butylcyclohexyl)-(3,5-dichlorophenoxycarbonyl)amino]methyl}benzoylamino)propionic acid] was run?
**A.** Its IC50 is 176 nM.

**Q.** `O=C(Nc1nn[nH]n1)c1ccc(CN(C(=O)Nc2cc(Br)cc(C(F)(F)F)c2)c2ccc(C3CCCCC3)cc2)cc1` [Example 264, 4-[3-(3-Bromo-5-trifluoromethylphenyl)-1-(4-cyclohexylphenyl)ureidomethyl]-N-(2H-tetrazol-5-yl)benzamide] was tested. Which IC50 did it give?
**A.** The IC50 was 9 nM.

**Q.** For `CCSc1cccc(NC(=O)N(Cc2ccc(C(=O)Nc3nn[nH]n3)cc2)c2ccc(C3CCCCC3)cc2)c1` [Example 289, 4-[1-(4-Cyclohexylphenyl)-3-(3-ethylsulfanylphenyl)ureidomethyl]-N-(2H-tetrazol-5-yl)benzamide], which IC50 is on record?
**A.** Its IC50 is 27 nM.

**Q.** `CCN(CC)C(=O)C1CCC(N(Cc2ccc(C(=O)NCCC(=O)O)cc2)C(=O)Nc2ccc(OC(F)(F)F)cc2)CC1` (centres unmarked) [Example 382, 3-{4-[1-(4-Diethylcarbamoylcyclohexyl)-3-(4-trifluoromethoxyphenyl)ureidomethyl]benzoylamino}propionic acid] was tested. Which IC50 did it give?
**A.** Its IC50 is 781 nM.

**Q.** `O=C(Nc1nn[nH]n1)c1ccc(CN(C(=O)Nc2cc(C(F)(F)F)cc(C(F)(F)F)c2)c2ccc(C3=CCCCC3)cc2)cc1` [Example 268, 4-[3-(3,5-Bis-trifluoromethylphenyl)-1-(4-cyclohex-1-enylphenyl)ureidomethyl]-N-(2H-tetrazol-5-yl)benzamide] was tested. Which IC50 did it give?
**A.** The IC50 was 21 nM.

**Q.** Which IC50 does the source give for `O=C(Nc1nn[nH]n1)c1ccc(CN(C(=O)Nc2ccccc2OC(F)(F)F)c2ccc(C3CCCCC3)cc2)cc1` [Example 350, 4-[1-(4-Cyclohexylphenyl)-3-(2-trifluoromethoxyphenyl)ureidomethyl]-N-(2H-tetrazol-5-yl)benzamide] here?
**A.** The IC50 was 271 nM.

**Q.** Which IC50 does the source give for `CC(C)(C)C1CCC(N(Cc2ccc(C(=O)Nc3nn[nH]n3)cc2)C(=O)/C=C/c2cccc3ccccc23)CC1` (centres unmarked) [Example 544] here?
**A.** The IC50 was 552 nM.

**Q.** `CC(C)Cc1ccc(C(=O)N(Cc2ccc(C(=O)Nc3nn[nH]n3)cc2)c2ccc(N3CCCCC3)cc2)cc1` [Example 518, 4-{[(4-Isobutylbenzoyl)-(4-piperidin-1-ylphenyl)amino]methyl}-N-(2H-tetrazol-5-yl)benzamide] was tested. Which IC50 did it give?
**A.** The IC50 was 1470 nM.

**Q.** How did the IC50 turn out when `O=C(O)CCNC(=O)c1ccc(CN(CCc2ccc(Cl)c(Cl)c2)C(=O)Nc2ccc(OCc3ccccc3)cc2)cc1` [Example 47, 3-{4-[3-(4-Benzyloxyphenyl)-1-[2-(3,4-dichlorophenyl)ethyl]ureidomethyl]benzoylamino}propionic acid] was run?
**A.** Its IC50 is 1100 nM.

**Q.** `CC(C)(C)c1ccc(N(Cc2ccc(C(=O)NCCC(=O)O)cc2)C(=O)Nc2ccc(OC(F)(F)F)cc2)cc1` [Example 373, 3-{4-[1-(4-tert-Butylphenyl)-3-(4-trifluoromethoxyphenyl)ureidomethyl]benzoylamino}propionic acid] was tested. Which IC50 did it give?
**A.** Its IC50 is 96 nM.

**Q.** How did the IC50 turn out when `CS(=O)(=O)c1cccc(NC(=O)N(Cc2ccc(C(=O)Nc3nn[nH]n3)cc2)c2ccc(C3=CCCCC3)cc2)c1` [Example 310, 4-[1-(4-Cyclohex-1-enylphenyl)-3-(3-methylsulfonylphenyl)ureidomethyl]-N-(2H-tetrazol-5-yl)benzamide] was run?
**A.** Its IC50 is 61 nM.

**Q.** For `CC(C)(C)C1CCC(N(Cc2ccc(C(=O)NCCC(=O)O)cc2)C(=O)Nc2ccc(C#N)c(C(F)(F)F)c2)CC1` (centres unmarked) [Example 70, 3-{4-[1-(4-tert-Butylcyclohexyl)-3-(4-cyano-3-trifluoromethylphenyl)ureidomethyl]benzoylamino}propionic acid], which IC50 is on record?
**A.** The IC50 was 168 nM.

**Q.** How did the IC50 turn out when `CC(C)(C)c1ccc(N(Cc2ccc(C(=O)Nc3nn[nH]n3)cc2)C(=O)Nc2cccc([N+](=O)[O-])c2)cc1` [Example 287, 4-[1-(4-tert-Butylphenyl)-3-(3-nitrophenyl)ureidomethyl]-N-(2H-tetrazol-5-yl)benzamide] was run?
**A.** The IC50 was 52 nM.

**Q.** For `CC1CCCCC1N(Cc1ccc(C(=O)NCCC(=O)O)cc1)C(=O)Nc1ccc(Oc2ccccc2)cc1` (centres unmarked) [Example 48, 3-{4-[1-(2-Methylcyclohexyl)-3-(4-phenoxyphenyl)ureidomethyl]benzoylamino}propionic acid], which IC50 is on record?
**A.** Its IC50 is 1080 nM.

**Q.** With `CCCC1CCC(N(Cc2ccc(C(=O)NCCC(=O)O)cc2)C(=O)Nc2ccc(OC(F)(F)F)cc2)CC1` (centres unmarked) [Example 75, 3-{4-[1-(4-Propylcyclohexyl)-3-(4-trifluoromethoxyphenyl)ureidomethyl]benzoylamino}propionic acid] as the compound, how does the IC50 read?
**A.** The IC50 was 177 nM.

**Q.** For `CC(C)(C)C1CCC(N(Cc2ccc(C(=O)NCCC(=O)O)cc2)C(=O)Nc2ccc(Cl)c(C(F)(F)F)c2)CC1` (centres unmarked) [Example 74, 3-{4-[1-(4-tert-Butylcyclohexyl)-3-(4-chloro-3-trifluoromethylphenyl)ureidomethyl]benzoylamino}propionic acid], which IC50 is on record?
**A.** Its IC50 is 61 nM.

Same assay, conditions: Glu Bd Assay (III) IC50 (nM), BHK cell membranes, WGA SPA beads, 125I-glucagon

**Q.** For `CCN(CC)C(=O)c1ccc(NC(=O)N(Cc2ccc(C(=O)NCCC(=O)O)cc2)[C@H]2CC[C@H](C(C)(C)C)CC2)cc1` [Example 240, 3-{4-[1-(trans-4-tert-Butylcyclohexyl)-3-(4-diethylcarbamoylphenyl)ureidomethyl]benzoylamino}propionic acid], which IC50 is on record?
**A.** The IC50 was 2430 nM.

**Q.** `CC(C)(C)[C@H]1CC[C@H](N(Cc2ccc(C(=O)NCCC(=O)O)cc2)C(=O)Nc2ccc(OCC3CC3)cc2)CC1` [Example 241, 3-{4-[1-(trans-4-tert-Butylcyclohexyl)-3-(4-cyclopropylmethoxyphenyl)ureidomethyl]benzoylamino}propionic acid] was tested. Which IC50 did it give?
**A.** The IC50 was 140 nM.
